Source: patent publication US7064120B2, “Tricyclic pyridyl carboxamides and derivatives thereof tocolytic oxytocin receptor antagonists” (Wyeth, priority 2001, dated 2006)

Target: T1, human vasopressin V1a receptor subtype (Homo sapiens, UniProt P37288)
T1 construct: host or cells: CHO cells, stably transfected (pZeoSV vector for the Thibonnier line)
Assay: Vasopressin binding in CHO cell membranes expressing human vasopressin V1a subtype receptors ([3H]Manning ligand radioligand binding)
Conditions: 100 nM
Outline: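 Membranes from CHO cells expressing human V1a, 25–50 μg protein/well, incubated 60 min at room temperature with [3H]Manning ligand (20 μL of 8 nM stock) in 50 mM Tris-HCl pH 7.4 with BSA, MgCl2 and protease inhibitors. Filtration then scintillation counting; reported as % inhibition or IC50 (nM).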

T1 sequence (P37288 whole entry): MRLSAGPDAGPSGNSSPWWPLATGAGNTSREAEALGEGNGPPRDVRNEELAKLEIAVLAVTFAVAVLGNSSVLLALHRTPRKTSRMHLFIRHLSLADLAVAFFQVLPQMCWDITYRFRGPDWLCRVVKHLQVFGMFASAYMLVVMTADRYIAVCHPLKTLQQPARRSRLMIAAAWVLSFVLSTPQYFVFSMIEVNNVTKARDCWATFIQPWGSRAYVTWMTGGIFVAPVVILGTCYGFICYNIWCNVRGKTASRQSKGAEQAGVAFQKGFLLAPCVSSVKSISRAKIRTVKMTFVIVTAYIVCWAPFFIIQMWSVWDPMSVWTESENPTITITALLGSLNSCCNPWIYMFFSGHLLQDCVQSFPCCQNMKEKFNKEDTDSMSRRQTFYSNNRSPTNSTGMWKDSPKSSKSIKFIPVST

inhibition at 0.1 µM [%] | SMILES
31 | COc1cccc(-c2ccc(C(=O)N3Cc4ccc(C(=O)N(C)CCc5ccncc5)n4Cc4ccccc43)cc2C)c1 [Example 128, 10-[(3′-Methoxy-2-methyl-[1,1′-biphenyl]-4-yl)carbonyl]-N-methyl-N-[2-(4-pyridinyl)ethyl]-10,11-dihydro-5H-pyrrolo[2,1-c][1,4]benzodiazepine-3-carboxamide]
54 | COc1ccccc1-c1ccc(C(=O)N2Cc3ccc(C(=O)N(C)CCc4ccncc4)n3Cc3ccccc32)cc1 [Example 129, 10-[(2′-Methoxy-[1,1′-biphenyl]-4-yl)carbonyl]-N-methyl-N-[2-(4-pyridinyl)ethyl]-10,11-dihydro-5H-pyrrolo[2,1-c][1,4]benzodiazepine-3-carboxamide]
5 | Cc1ccccc1-c1ccc(C(=O)N2Cc3ccc(C(=O)N(C)CCc4ccncc4)n3Cc3ccccc32)cc1 [Example 130, N-Methyl-10-[(2′-methyl-[1,1′-biphenyl]-4-yl)carbonyl]-N-[2-(4-pyridinyl)ethyl]-10,11-dihydro-5H-pyrrolo[2,1-c][1,4]benzodiazepine-3-carboxamide]
83 | COc1cc(C(=O)N2Cc3ccc(C(=O)N(C)CCc4ccncc4)n3Cc3ccccc32)ccc1-c1ccccc1C [Example 131, 10-[(2-Methoxy-2′-methyl-[1,1′-biphenyl]-4-yl)carbonyl]-N-methyl-N-[2-(4-pyridinyl)ethyl]-10,11-dihydro-5H-pyrrolo[2,1-c][1,4]benzodiazepine-3-carboxamide]
26 | COc1cc(-c2ccccc2C)c(Cl)cc1C(=O)N1Cc2ccc(C(=O)N(C)CCc3ccncc3)n2Cc2ccccc21 [Example 132, 10-[(6-Chloro-3-methoxy-2′-methyl-[1,1′-biphenyl]-4-yl)carbonyl]-N-methyl-N-[2-(4-pyridinyl)ethyl]-10,11-dihydro-5H-pyrrolo[2,1-c][1,4]benzodiazepine-3-carboxamide]
19 | COc1cccc(-c2cc(OC)c(C(=O)N3Cc4ccc(C(=O)N(C)CCc5ccncc5)n4Cc4ccccc43)cc2Cl)c1 [Example 133, 10-[(6-Chloro-3,3′-dimethoxy-[1,1′-biphenyl]-4-yl)carbonyl]-N-methyl-N-[2-(4-pyridinyl)ethyl]-10,11-dihydro-5H-pyrrolo[2,1-c][1,4]benzodiazepine-3-carboxamide]
30 | COc1cc(C(=O)N2Cc3ccc(C(=O)N(C)CCc4ccncc4)n3Cc3ccccc32)ccc1-c1cccc2ccccc12 [Example 134, 10-[3-Methoxy-4-(naphthalen-1-yl)benzoyl]-N-methyl-N-[2-(4-pyridinyl)ethyl]-10,11-dihydro-5H-pyrrolo[2,1-c][1,4]benzodiazepine-3-carboxamide]
68 | COc1cccc(-c2ccc(C(=O)N3Cc4ccc(C(=O)N(C)CCc5ccncc5)n4Cc4ccccc43)cc2OC)c1 [Example 135, 10-[(2,3′-Dimethoxy-[1,1′-biphenyl]-4-yl)carbonyl]-N-methyl-N-[2-(4-pyridinyl)ethyl]-10,11-dihydro-5H-pyrrolo[2,1-c][1,4]benzodiazepine-3-carboxamide]
7 | CN(CCc1ccncc1)C(=O)c1ccc2n1Cc1ccccc1N(C(=O)c1ccc(-c3cccc4ccccc34)cc1Cl)C2 [Example 136, 10-[2-Chloro-4-(naphthalen-1-yl)benzoyl]-N-methyl-N-[2-(4-pyridinyl)ethyl]-10,11-dihydro-5H-pyrrolo[2,1-c][1,4]benzodiazepine-3-carboxamide]
-1 | Cc1cc(C(=O)N2Cc3ccc(C(=O)N(C)CCc4ccncc4)n3Cc3ccccc32)ccc1-c1ccccc1C(F)(F)F [Example 137, N-Methyl-10-{[2-methyl-2′-trifluoromethyl-[1,1′-biphenyl]-4-yl]carbonyl}-N-[2-(4-pyridinyl)ethyl]-10,11-dihydro-5H-pyrrolo[2,1-c][1,4]benzodiazepine-3-carboxamide]
8 | COc1ccccc1-c1ccc(C(=O)N2Cc3ccc(C(=O)N4CCCCC4c4cccnc4)n3Cc3ccccc32)cc1C (stereo not shown) [Example 138, {10-[(2′-Methoxy-2-methyl-[1,1′-biphenyl]-4-yl)carbonyl]-10,11-dihydro-5H-pyrrolo[2,1-c][1,4]benzodiazepin-3-yl}[2-(3-pyridinyl)-1-piperidinyl]methanone]
21 | COc1ccccc1-c1ccc(C(=O)N2Cc3ccc(C(=O)N4CCCCC4c4cccnc4)n3Cc3ccccc32)cc1 (stereo not shown) [Example 139, {10-[(2′-Methoxy-[1,1′-biphenyl]-4-yl)carbonyl]-10,11-dihydro-5H-pyrrolo[2,1-c][1,4]benzodiazepin-3-yl}[2-(3-pyridinyl)-1-piperidinyl]methanone]
-3 | COc1cc(-c2ccccc2C)c(Cl)cc1C(=O)N1Cc2ccc(C(=O)N3CCCCC3c3cccnc3)n2Cc2ccccc21 (stereo not shown) [Example 140, {10-[(6-Chloro-3-methoxy-2′-methyl-[1,1′-biphenyl]-4-yl)carbonyl]-10,11-dihydro-5H-pyrrolo[2,1-c][1,4]benzodiazepin-3-yl}[2-(3-pyridinyl)-1-piperidinyl]methanone]
9 | COc1ccccc1-c1ccc(C(=O)N2Cc3ccc(C(=O)N4CCCCC4c4cccnc4)n3Cc3ccccc32)cc1OC (stereo not shown) [Example 141, {10-[(2,2′-Dimethoxy-[1,1′-biphenyl]-4-yl)carbonyl]-10,11-dihydro-5H-pyrrolo[2,1-c][1,4]benzodiazepin-3-yl}[2-(3-pyridinyl)-1-piperidinyl]methanone]
-5 | Cc1cc(C(=O)N2Cc3ccc(C(=O)N4CCCCC4c4cccnc4)n3Cc3ccccc32)ccc1-c1ccccc1C(F)(F)F (stereo not shown) [Example 142, (10-{[2-Methyl-2′-trifluoromethyl-[1,1′-biphenyl]-4-yl]carbonyl}-10,11-dihydro-5H-pyrrolo[2,1-c][1,4]benzodiazepin-3-yl)[2-(3-pyridinyl)-1-piperidinyl]methanone]
11 | COc1cc(C(=O)N2Cc3ccc(C(=O)N(C)CCc4ccccn4)n3Cc3ccccc32)ccc1-n1c(C)ccc1C [Example 144, 10-[4-(2,5-Dimethyl-1H-pyrrol-1-yl)-3-methoxybenzoyl]-N-methyl-N-[2-(pyridin-2-yl)ethyl]-10,11-dihydro-5H-pyrrolo[2,1-c][1,4]benzodiazepine-3-carboxamide]
-1 | COc1cc(C(=O)N2Cc3ccc(C(=O)N4CCN(c5ccccn5)CC4)n3Cc3ccccc32)ccc1-n1c(C)ccc1C [Example 145, {10-[4-(2,5-Dimethyl-1H-pyrrol-1-yl)-3-methoxybenzoyl]-10,11-dihydro-5H-pyrrolo[2,1-c][1,4]benzodiazepin-3-yl}[4-(pyridin-2-yl)-1-piperazinyl]methanone]
11 | COc1cc(C(=O)N2Cc3ccc(C(=O)N4CCN(c5ccncc5)CC4)n3Cc3ccccc32)ccc1-n1c(C)ccc1C [Example 146, {10-[4-(2,5-Dimethyl-1H-pyrrol-1-yl)-3-methoxybenzoyl]-10,11-dihydro-5H-pyrrolo[2,1-c][1,4]benzodiazepin-3-yl}[4-(pyridin-4-yl)-1-piperazinyl]methanone]
15 | COc1cc(C(=O)N2Cc3ccc(C(=O)N(C)CCc4ccncc4)n3Cc3ccccc32)ccc1-n1c(C)ccc1C [Example 147, 10-[4-(2,5-Dimethyl-1H-pyrrol-1-yl)-3-methoxybenzoyl]-N-methyl-N-[2-(pyridin-4-yl)ethyl]-10,11-dihydro-5H-pyrrolo[2,1-c][1,4]benzodiazepine-3-carboxamide]
